Patent publication US20100286076A1, “ECTOPARASITICIDAL METHODS AND FORMULATIONS” (priority 2009, published 2010)
Where two headings read alike, the source gives them in different places.

Tests used:
House Fly = assay: Adult House Fly Assay (AhsF), feeding on compound-soaked dental wicks, 24 h mortality; parameters: species or system Musca domestica; details: 24 h, read-out: Potency (24 h EC50 μM)
Experimental: Adult Stable or House Fly Assay (ASF, AhsF). This assay is conducted essentially as described in White, W. H., S. M. Bauer, X. Zhao et al., Comparison of in vitro and in vivo ectoparasiticide activity of an experimental benzimidazole-carbamate with permethrin and amitraz, J. Med. Entomol. 42, 207-211 (2005); and White, W. H., C. M. McCoy, J. A. Meyer et al., Knockdown and mortality comparisons among spinosad-, imidacloprid-, and methomyl-containing baits against susceptible Musca domestica (Diptera: Muscidae) under laboratory conditions, J. Econ. Entomol. 100, 155-163 (2007).
Test material is formulated in DMSO at 10 mM. Doubling dilutions in like solvent are made to yield 10 testing levels. Materials are diluted in either bovine serum (stable flies) or 5% glucose solution (house flies) to obtain desired exposure concentrations from 200-0.39 μM. Approximately 3 ml of diluted test material is placed into a test tube (n=3 per test level) and a dental wick is used to absorb fluid. One dental wick is placed into a small weigh boat inside of a 100 mm Petri dish. Approximately 10 mixed-sex adult flies are anesthetized using carbon dioxide and counted into each dish. Dishes are incubated at 27° C. and 50-70% relative humidity. Flies recover from anesthesia and feed on compound-soaked dental wicks. After 24 h, live/dead flies are enumerated. Nonlinear regression is used to model dose-mortality relationship and obtain relative potency (LD50) data compared to contemporaneous controls (solvent-only or permethrin).

[1] = system: adult cat flea, Ctenocephalides felis; details: dogs, historical data, not contemporaneous controls, cited from earlier work

Row | Compound | EC50 (House Fly; Musca domestica) [µM] | EC50 (House Fly; adult house flies, 5% glucose solution) [µM] | geometric mean percent flea reduction, Day 7 ([1]; Day 7) [%] | geometric mean percent flea reduction, Day 14 ([1]; Day 14) [%] | geometric mean percent flea reduction, Day 21 ([1]; Day 21) [%] | geometric mean percent flea reduction, Day 30 ([1]; Day 30) [%] | geometric mean percent flea reduction, Day 37 ([1]; Day 37) [%] | geometric mean percent flea reduction, Knockdown ([1]; Knockdown) [%]
1 | N#Cc1nn(-c2c(Cl)cc(C(F)(F)F)cc2Cl)c(N)c1[S+]([O-])C(F)(F)F (centres unmarked) [Fipronil, reference compound] | 0.97 | – | – | – | – | – | – | –
2 | Spinosad | – | 12 | 100 | 99.6 | 100 | 97.8 | 91.1 | 100
